Converted amounts (≈) assume the structure as drawn.
How the values were obtained:
[1] = test system: H12.1 germ cell tumor, 1411HP germ cell tumor, A2780 ovarian carcinoma, HT29 colon carcinoma, DLD1 colon carcinoma, HCT8 colon carcinoma; experiment: SRB-cytotoxicity assay in a panel of tumor cell lines; assay type: cell-based, human; conditions: H12.1, 1411HP
Description: The cytotoxic activity of 5b was established by standard colorimetric tests (SRB- and MTT-assays) against various tumor cell lines of different entities. For the SRB cytotoxicity assay, dose-response curves of the testicular germ cell tumor cell lines exposed to drug concentrations of 0.001-10 μM were established using the sulforhodamine-B (SRB) microcuiture colorimetric assay (Papazisis et al. Optimization of the sulforhodamine B colorimetric assay. J. Immunol. Methods 1997, 208, 151-158) and performed as described in: Müller et al. Failure of activation of caspase-9 induces a higher threshold for apoptosis and cisplatin resistance in testicular cancer. Cancer Res. 2003, 63, 513-521. Briefly, cells were seeded into 96-well plates on day 0, at cell densities previously determined to ensure exponential cell growth during the period of the experiment. On day 1, cells were treated with the drugs dissolved in medium to give the appropriate concentrations for indicated times and the percentage of surviving cells relative to untreated controls was determined on day 5.
The compounds 5b, 6b, 5f and 6f as well as the reference compound 25f (Wang et al.) were furthermore subjected to an SRB-cytotoxicity assay in a panel of tumor cell lines (H12.1 germ cell tumor, 1411HP germ cell tumor, A2780 ovarian carcinoma, HT29 colon carcinoma, DLD1 colon carcinoma, HCT8 colon carcinoma).

[2] = test system: 1411HP germ cell tumor xenografts; experiment: Nude mouse xenograft model of resistant 1411HP; assay type: in vivo; conditions: 1411HP xenograft model
Description: In vivo antitumor activity and tolerability of compounds 5b and 6b of the invention were studied in a nude mouse xenograft model of the resistant germ cell tumor cell line 1411HP employing Athymic Nude-Fox n1 nu/nu mice (Harlan und Winkelmann, Borchen, Germany).
The tests were carried out as follows. The mice were kept under pathogen-free conditions, fed on an autoclaved standard diet and given free access to sterilized water. Each of five mice were administered a 150 μL phosphate buffered saline suspension of 10 million 1411HP cells into the left flank to generate subcutaneous xenograft tumors. After 4 weeks one group of two mice bearing 1411HP xenografts with a volume of ca. 1 cm^3 were injected i.p. with a single dose of 30 mg/kg body weight of 5b or 6b, respectively. Two mice in the second group with xenografts of a volume of ca. 2.5 cm^3 were injected i.p. with 20 mg/kg body weight of 5b on two consecutive days. Tumor volumes were calculated by caliper measurement using the formula a^2×b×0.5 with a being the short and b the long dimension. Body weight was assessed twice weekly and daily while under therapy.

[3] = test system: A2780 ovarian carcinoma xenografts; experiment: A2780 ovarian carcinoma xenograft model; assay type: in vivo, mouse
[4] = test system: PtK-2 opossum kidney cells; experiment: Cytotoxicity, PtK-2; assay type: cell-based; conditions: PtK2; PtK-2 opossum kidney cells (non-malign)
Description: (§1) The compounds 9a, 9b and 9c, which are exemplary compounds of formula (III) according to the present invention, as well as the reference compound 25f were tested in a similar manner.

NHDF fibroblasts = experiment: Cytotoxicity, NHDF; assay type: cell-based; conditions: Homo sapiens; NHDF fibroblasts (non-malign)
Description: as §1

L929 fibroblasts = experiment: Cytotoxicity, L929; assay type: cell-based; conditions: Mus musculus, read-out: IC50 L-929
Description: as §1

KB-3-1 cervix carcinoma = experiment: Cytotoxicity, KB-3-1; assay type: cell-based; conditions: Homo sapiens
Description: as §1

HUVEC cells = experiment: Minimal inhibitory concentration in HUVEC; assay type: cell-based
Description: as §1

[5] = Toxicity / tolerability in mice; assay type: in vivo
Description: Prior to testing compound 5b, healthy animals of this type were treated with an ascending range of doses of 5b in order to establish a toxicity profile. […] Suitable dosages were then administered in further tests in a nude mouse xenograft model of a pair of germ cell tumor cell lines, the chemoresistant cell line 1411HP and the chemosensitive cell line H12.1. These cell lines retain their individual in vitro chemosensitivities to cisplatin when grown as xenograft tumors and so may serve as a model of the clinical situation of resistance to chemotherapy (Mueller et al. Cancer Res. 2003; Mueller et al. Tumor Biol. 2006).
Compounds 5b, 6b and 6f were also tested in terms of feasibility of oral administration. Mice received a single dose of 40 mg/kg body weight of 5b, 6b or 6f, respectively. […] Then compounds 6b or 6f were given peroral as dual-dose application on two consecutive days in accordance to the i.p. treatment scheme used for the regression trials but with a 2-fold higher dose of 2×40 mg/kg body weight.

Structure (SMILES)	in vitro cytotoxicity compared to 25f [1]	vascular disrupting effect [2]	vascular disrupting effect [3]	IC50 [4]	IC50 (NHDF fibroblasts)	IC50 (L929 fibroblasts)	IC50 (KB-3-1 cervix carcinoma)	minimal inhibitory concentration (MIC) HUVEC (HUVEC cells)	toxicity after oral administration ([5]; peroral dual-dose 2×40 mg/kg on two consecutive days)	toxicity after oral administration ([5]; single dose 40 mg/kg oral)	toxicity after oral administration ([5]; single dose 60 mg/kg peroral)
CCOc1ccc(-c2c(-c3cc(Cl)c(OC)c(OC)c3)ncn2C)cc1N [compound 5f, 1-methyl-5-(3-amino-4-ethoxyphenyl)-4-(3-chloro-4,5-dimethoxyphenyl)-imidazole]	further improvement of cytotoxicity	vascular disrupting activity	vascular disrupting activity								
COc1ccc(-c2ncn(C)c2-c2cc(Br)c(OC)c(OC)c2)cc1F [9a, 1-Methyl-5-(3-bromo-4,5-dimethoxyphenyl)-4-(3-fluoro-4-methoxyphenyl)imidazole]				437 nM	175 nM	24 nM	4.4 nM	0.109 µM (≈ 0.0459 µg/mL)			
CCOc1ccc(-c2c(-c3cc(Br)c(OC)c(OC)c3)ncn2C)cc1N [compound 6f, 1-methyl-5-(3-amino-4-ethoxyphenyl)-4-(3-bromo-4,5-dimethoxyphenyl)-imidazole]	further improvement of cytotoxicity	vascular disrupting activity	vascular disrupting activity						no signs of toxicity were observed	No signs of toxicity were observed	tolerated symptom-free

Reference: US8980933B2, “Combretastatin analogs for use in the treatment of cancer” (Universitat Bayreuth, priority 2010, dated 2015)
